Experimental data as given in the supplement of paper PMC10627819.

Assays:
[1] = system: S. pneumoniae D39V; assay: fitness (endpoint OD595 vs no drug) (fraction); higher = more growth
Summary of the method: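 Background-subtracted growth curves were the basis for fitness, taken as the optical density at entry into stationary phase over the robust mean of no-drug control wells. A cap of 1 was applied. The curves came from OD595 readings every 30 min for 14 h at 37 °C, in 384-well plates seeded at OD595 0.01 with 30 µl, or 55 µl for S. pneumoniae.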

[2] = system: B. subtilis 168; assay: Bliss interaction score (quartile over a dose matrix) (fitness difference); higher = more antagonism (negative = synergy)
Summary of the method: (§1)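 The Bliss score was calculated by subtracting the expected fitness, the product of single-drug values, from the observed fitness. OD595 at entry into stationary phase, over the plate's robust no-drug mean and capped at 1, served as the fitness readout. Single-drug values were inferred from combination data, and scores are summarised by quartiles across technical, biological and donor/recipient replicates.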

[3] = system: S. aureus DSM 20231; assay: as above
Summary of the method: as §1

[4] = system: S. aureus Newman; assay: as above
Summary of the method: as §1

[5] = system: S. pneumoniae D39V; assay: as above
Summary of the method: as §1
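For Bliss interaction score (quartile over a dose matrix) in this document: first quartile when negative (synergy) and third quartile when positive (antagonism).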

Clc1ccc(COC(Cn2ccnc2)c2ccc(Cl)cc2Cl)c(Cl)c1 (configuration not stated) [Miconazole] + Cn1nnc(-c2ccc(-c3ccc(N4C[C@H](CO)OC4=O)cc3F)cn2)n1 [Tedizolid]
fitness, [1]
Details	first compound 1.073 µg/mL	first compound 1.25 µg/mL	first compound 2.145 µg/mL	first compound 2.5 µg/mL	first compound 4.29 µg/mL	first compound 5 µg/mL
partner 0.03125 µg/mL	–	0.96	–	0.97	–	0.925
partner 0.0625 µg/mL	–	0.968	–	0.929	–	0.934
partner 0.125 µg/mL	0.872	0.797	0.937	0.797	0.943	0.746
partner 0.25 µg/mL	0.729	–	0.778	–	0.829	–
partner 0.5 µg/mL	0.413	–	0.402	–	0.489	–

Details	Bliss interaction score
[2]	0.0402
[3]	0.0592
[4]	0.0625
[5]	-0.0671

Clc1ccc(COC(Cn2ccnc2)c2ccc(Cl)cc2Cl)c(Cl)c1 (configuration not stated) [Miconazole] + O=C1CN(/N=C/c2ccc([N+](=O)[O-])o2)C(=O)N1 [Nitrofurantoin]
fitness, [1]
Details	first compound 1.073 µg/mL	first compound 1.25 µg/mL	first compound 2.145 µg/mL	first compound 2.5 µg/mL	first compound 4.29 µg/mL	first compound 5 µg/mL
partner 1.285 µg/mL	–	0.987	–	0.959	–	0.945
partner 2 µg/mL	0.972	–	≥ 1	–	0.93	–
partner 2.57 µg/mL	–	0.968	–	0.954	–	0.936
partner 4 µg/mL	0.988	–	≥ 1	–	0.949	–
partner 8 µg/mL	0.92	–	0.951	–	0.919	–

[1], partner 5.14 µg/mL, one replicate
Details	fitness
first compound 1.25 µg/mL	0.897
first compound 2.5 µg/mL	0.848
first compound 5 µg/mL	0.847

Details	Bliss interaction score
[2]	-0.125
[3]	0.0458
[4]	-0.0579
[5]	0.091

Clc1ccc(COC(Cn2ccnc2)c2ccc(Cl)cc2Cl)c(Cl)c1 (configuration not stated) [Miconazole] + C/C(=C\C(=O)OCCCCCCCCC(=O)O)C[C@@H]1OC[C@H](C[C@@H]2O[C@H]2[C@@H](C)[C@H](C)O)[C@@H](O)[C@H]1O [Pseudomonic acid]
fitness, [1]
Details	first compound 1.073 µg/mL	first compound 1.25 µg/mL	first compound 2.145 µg/mL	first compound 2.5 µg/mL	first compound 4.29 µg/mL	first compound 5 µg/mL
partner 0.03 µg/mL	0.988	0.915	≥ 1	0.894	≥ 1	0.88
partner 0.06 µg/mL	0.914	0.746	0.94	0.754	0.981	0.681
partner 0.12 µg/mL	0.734	0.563	0.759	0.551	–	0.549

Details	Bliss interaction score
[2]	-0.0459
[3]	0.0125
[4]	-0.0143
[5]	0.126

CNC(C)C1CCC(N)C(OC2C(N)CC(N)C(OC3OCC(C)(O)C(NC)C3O)C2O)O1 (configuration not stated) [Gentamicin] + CO[C@H]1/C=C/O[C@@]2(C)Oc3c(C)c(O)c4c(O)c(c(/C=N/N5CCN(C)CC5)c(O)c4c3C2=O)NC(=O)/C(C)=C\C=C\[C@H](C)[C@H](O)[C@@H](C)[C@@H](O)[C@@H](C)[C@H](OC(C)=O)[C@@H]1C [Rifampicin]
[1], partner 0.025 µg/mL, main component drawn
Details	fitness
first compound 2 µg/mL	≥ 1
first compound 4 µg/mL	≥ 1
first compound 8 µg/mL	0.935

[1], partner 0.2 µg/mL, one replicate, main component drawn
Details	fitness
first compound 2 µg/mL	0
first compound 4 µg/mL	0
first compound 8 µg/mL	0

main component drawn
Details	Bliss interaction score
[2]	0.225
[3]	0.0516
[4]	0.0286
[5]	0.083

Clc1ccc(COC(Cn2ccnc2)c2ccc(Cl)cc2Cl)c(Cl)c1 (configuration not stated) [Miconazole] + CN1C2=CC=CC=C2N=C3C1=CC=CC3=O [Pyocyanin]
fitness, [1]
Details	first compound 1.073 µg/mL	first compound 2.145 µg/mL	first compound 4.29 µg/mL
partner 0.325 µg/mL	≥ 1	≥ 1	≥ 1
partner 0.65 µg/mL	0.975	1	0.908
partner 1.3 µg/mL	0.787	–	0.729

fitness, [1], one replicate
Details	first compound 1.25 µg/mL	first compound 2.5 µg/mL	first compound 5 µg/mL
partner 0.325 µg/mL	0.917	0.916	0.93
partner 0.65 µg/mL	0.963	0.905	0.907

Details	Bliss interaction score
[2]	-0.0752
[3]	0.0453
[4]	0.0548
[5]	0.0535

Clc1ccc(COC(Cn2ccnc2)c2ccc(Cl)cc2Cl)c(Cl)c1 (configuration not stated) [Miconazole] + C[n+]1ccc(-c2cc[n+](C)cc2)cc1 [Paraquat]
fitness, [1]
Details	first compound 1.073 µg/mL	first compound 2.145 µg/mL	first compound 4.29 µg/mL
partner 1.5 µg/mL	≥ 1	0.999	0.925
partner 3 µg/mL	≥ 1	0.987	0.908
partner 6 µg/mL	0.979	0.983	0.824

fitness, [1], one replicate
Details	first compound 1.25 µg/mL	first compound 2.5 µg/mL	first compound 5 µg/mL
partner 1.5 µg/mL	≥ 1	0.983	0.944
partner 3 µg/mL	≥ 1	≥ 1	0.997
partner 6 µg/mL	0.957	0.932	0.885

Details	Bliss interaction score
[2]	0.0318
[3]	0.0436
[4]	-0.0378
[5]	-0.0527

Clc1ccc(COC(Cn2ccnc2)c2ccc(Cl)cc2Cl)c(Cl)c1 (configuration not stated) [Miconazole] + CO[C@H]1/C=C/O[C@@]2(C)Oc3c(C)c(O)c4c(O)c(c(/C=N/N5CCN(C)CC5)c(O)c4c3C2=O)NC(=O)/C(C)=C\C=C\[C@H](C)[C@H](O)[C@@H](C)[C@@H](O)[C@@H](C)[C@H](OC(C)=O)[C@@H]1C [Rifampicin]
fitness, [1]
Details	first compound 1.073 µg/mL	first compound 1.25 µg/mL	first compound 2.145 µg/mL	first compound 2.5 µg/mL	first compound 4.29 µg/mL	first compound 5 µg/mL
partner 0.05 µg/mL	0.974	0.774	1	0.806	0.998	0.779
partner 0.1 µg/mL	–	0.411	–	0.41	0.776	–
partner 0.2 µg/mL	0.363	–	0.37	–	0.477	–

fitness, [1], one replicate
Details	first compound 1.25 µg/mL	first compound 2.5 µg/mL	first compound 5 µg/mL
partner 0.025 µg/mL	0.856	0.861	0.853
partner 0.2 µg/mL	0	0	0

Details	Bliss interaction score
[2]	0.0476
[3]	0.035
[4]	0.0801
[5]	0.169

CC1=C(C(=O)O)N2C(=O)[C@@H](NC(=O)[C@H](N)c3ccccc3)[C@H]2SC1 [Cephalexin] + CO[C@H]1/C=C/O[C@@]2(C)Oc3c(C)c(O)c4c(O)c(c(/C=N/N5CCN(C)CC5)c(O)c4c3C2=O)NC(=O)/C(C)=C\C=C\[C@H](C)[C@H](O)[C@@H](C)[C@@H](O)[C@@H](C)[C@H](OC(C)=O)[C@@H]1C [Rifampicin]
fitness, [1], one replicate
Details	first compound 0.125 µg/mL	first compound 0.25 µg/mL	first compound 0.5 µg/mL	first compound 1 µg/mL	first compound 2 µg/mL	first compound 4 µg/mL
partner 0.025 µg/mL	–	–	–	0.258	0.0265	0.0322
partner 0.05 µg/mL	0.714	0.774	0.7	–	–	–
partner 0.1 µg/mL	0.314	0.257	0.225	–	–	–
partner 0.2 µg/mL	0.207	0.141	0.108	0	0	0

fitness, [1]
Details	first compound 1 µg/mL	first compound 2 µg/mL	first compound 4 µg/mL
partner 0.05 µg/mL	0.301	0.0661	0.0542
partner 0.1 µg/mL	0.14	0.0642	0.0638

Details	Bliss interaction score
[2]	0.12
[3]	0.0837
[4]	0.0156
[5]	-0.065
